PubChem BioAssay (NCI)
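96-well plates; 48 h exposure; 5 concentrations. Endpoints by linear interpolation between flanking doses. Not reached: highest tested concentration assigned. TGI: concentration producing complete growth inhibition.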

How the values were obtained:
Experiment in all cases: inhibition of tumour cell growth, NCI panel, 48 h
OVCAR-4 ovarian = test system: OVCAR-4 ovarian
MDA-MB-435 = test system: MDA-MB-435
HCT-15 colon = test system: HCT-15 colon
NCI-H226 lung = test system: NCI-H226 lung
HT29 colon = test system: HT29 colon
HS 578T breast = test system: HS 578T breast
K-562 leukemia = test system: K-562 leukemia
SR leukemia = test system: SR leukemia
SK-MEL-5 melanoma = test system: SK-MEL-5 melanoma
OVCAR-3 ovarian = test system: OVCAR-3 ovarian
HOP-92 NSCLC = test system: HOP-92 NSCLC
786-0 renal = test system: 786-0 renal
MCF7 breast = test system: MCF7 breast
OVCAR-5 ovarian = test system: OVCAR-5 ovarian
A549 NSCLC = test system: A549 NSCLC
PC-3 prostate = test system: PC-3 prostate
NCI-H23 lung = test system: NCI-H23 lung
RPMI-8226 leukemia = test system: RPMI-8226 leukemia
MOLT-4 leukemia = test system: MOLT-4 leukemia
EKVX NSCLC = test system: EKVX NSCLC
SN12C renal = test system: SN12C renal
RXF 393 renal = test system: RXF 393 renal
SF-539 CNS = test system: SF-539 CNS
SW-620 colon = test system: SW-620 colon
HOP-62 NSCLC = test system: HOP-62 NSCLC
LOX IMVI melanoma = test system: LOX IMVI melanoma
CCRF-CEM leukemia = test system: CCRF-CEM leukemia
UACC-62 melanoma = test system: UACC-62 melanoma
SNB-75 CNS = test system: SNB-75 CNS
MDA-MB-231 breast = test system: MDA-MB-231 breast
BT-549 breast = test system: BT-549 breast
OVCAR-8 ovarian = test system: OVCAR-8 ovarian
SK-MEL-2 melanoma = test system: SK-MEL-2 melanoma
SF-295 CNS = test system: SF-295 CNS
SK-MEL-28 melanoma = test system: SK-MEL-28 melanoma
KM12 colon = test system: KM12 colon
UO-31 renal = test system: UO-31 renal
ACHN renal = test system: ACHN renal
COLO 205 colon = test system: COLO 205 colon
HL-60(TB) leukemia = test system: HL-60(TB) leukemia
HCT-116 colon = test system: HCT-116 colon
CAKI-1 renal = test system: CAKI-1 renal
NCI-H522 lung = test system: NCI-H522 lung
A498 renal = test system: A498 renal
T-47D breast = test system: T-47D breast
M14 melanoma = test system: M14 melanoma
MALME-3M melanoma = test system: MALME-3M melanoma
U251 CNS = test system: U251 CNS
SNB-19 CNS = test system: SNB-19 CNS
SF-268 CNS = test system: SF-268 CNS
DU-145 prostate = test system: DU-145 prostate
IGROV1 ovarian = test system: IGROV1 ovarian
NCI/ADR-RES ovarian = test system: NCI/ADR-RES ovarian
SK-OV-3 ovarian = test system: SK-OV-3 ovarian

`COC(=O)C[C@H](COCc1ccccc1)NC(=O)C[C@H](COCc1ccccc1)NC(=O)OC(C)(C)C` showed a TGI (OVCAR-4 ovarian) of 36.7 µM, a TGI (MDA-MB-435) of over 100 µM and a TGI (HCT-15 colon) of over 100 µM. It also gave a TGI (NCI-H226 lung) of over 100 µM, a TGI (HT29 colon) of over 100 µM and a TGI (HS 578T breast) of 67.1 µM. The TGI (K-562 leukemia) was over 100 µM, the TGI (SR leukemia) was over 100 µM and the TGI (SK-MEL-5 melanoma) was over 100 µM. The TGI (OVCAR-3 ovarian) was 86.9 µM, the TGI (HOP-92 NSCLC) was 65.5 µM and the TGI (786-0 renal) was 40.8 µM. It also gave a TGI (MCF7 breast) of 51.1 µM, a TGI (OVCAR-5 ovarian) of 99.8 µM and a TGI (A549 NSCLC) of 62.4 µM. It also gave a TGI (PC-3 prostate) of 77.6 µM, a TGI (NCI-H23 lung) of over 100 µM and a TGI (RPMI-8226 leukemia) of over 100 µM. It also gave a TGI (MOLT-4 leukemia) of over 100 µM, a TGI (EKVX NSCLC) of 45.4 µM and a TGI (SN12C renal) of 80.6 µM. For the same compound, the TGI (RXF 393 renal) was 63.3 µM, the TGI (SF-539 CNS) was over 100 µM and the TGI (SW-620 colon) was over 100 µM. It also gave a TGI (HOP-62 NSCLC) of 49.2 µM, a TGI (LOX IMVI melanoma) of over 100 µM and a TGI (CCRF-CEM leukemia) of over 100 µM. The TGI (UACC-62 melanoma) was over 100 µM, the TGI (SNB-75 CNS) was 61.2 µM and the TGI (MDA-MB-231 breast) was over 100 µM. For the same compound, the TGI (BT-549 breast) was 51.9 µM, the TGI (OVCAR-8 ovarian) was 61.7 µM and the TGI (SK-MEL-2 melanoma) was over 100 µM. It also gave a TGI (SF-295 CNS) of over 100 µM, a TGI (SK-MEL-28 melanoma) of over 100 µM and a TGI (KM12 colon) of over 100 µM. The TGI (UO-31 renal) was over 100 µM, the TGI (ACHN renal) was over 100 µM and the TGI (COLO 205 colon) was over 100 µM. It also gave a TGI (HL-60(TB) leukemia) of over 100 µM, a TGI (HCT-116 colon) of 81.2 µM and a TGI (CAKI-1 renal) of over 100 µM. The TGI (NCI-H522 lung) was 54 µM, the TGI (A498 renal) was 61.9 µM and the TGI (T-47D breast) was 98.7 µM. For the same compound, the TGI (M14 melanoma) was over 100 µM, the TGI (MALME-3M melanoma) was over 100 µM and the TGI (U251 CNS) was 67.7 µM. For the same compound, the TGI (SNB-19 CNS) was 44.2 µM, the TGI (SF-268 CNS) was 40.5 µM and the TGI (DU-145 prostate) was 44.9 µM. It also gave a TGI (IGROV1 ovarian) of over 100 µM, a TGI (NCI/ADR-RES ovarian) of 72.2 µM and a TGI (SK-OV-3 ovarian) of 59.8 µM.
